Source: US20110021471A1, “REDUCING Abeta42 LEVELS AND Abeta AGGREGATION” (priority 2007, published 2011)
pEC50: −log10 of the molar value.

Experiments:
Tg2576 mice = assay: Acute oral dosing of Tg2576 mice, brain soluble Aβ after 4 hours; type: in vivo, mouse
Description: FIG. 2. Aβ modulating agents can inhibit Aβ aggregation, and agents that bind Aβ amyloid can modulate Aβ42 production. […] (C) Aβ42 modulating agents inhibit naturally secreted oligomer formation. 7PA2 cells were treated with fenofibrate, FT-1, or FT-9 at 50 μM and oligomers assessed by IP Western blotting. […] (D) FT-9, an Aβ42 reducing agent, can inhibit Aβ42 aggregation in vitro.
FIG. 13. Compounds that bind Aβ are GSMs in vitro and in vivo. (A) A cell-based screen of Aβ-binders identified molecules that increase Aβ42 (DAPH) or decrease Aβ42 (Bis-ANS, X-34 or chrysamine G (CG)). Data are mean±s.e.m., n=3. (B) X-34 is an Aβ42-lowering GSM. Changes in amyloid-β peptide amounts after X-34 treatment are shown. Data are presented as percentage control±s.e.m., n=3. EC50 values were calculated. […] NA, not applicable. (C) X-34 binds to APP(C100)-Flag and decreases labeling by GSM photoprobes. Biotin incorporation into APP by Fen-B and Flurbi-BpB is presented as percentage of control (peptide without X-34)±s.e.m., n=2. (D) X-34 lowers Aβ42 in Tg2576 mice after 4 h. […] Data are presented as amyloid-β percentage of control relative to vehicle±s.e.m. Animals per group (n). Asterisk, P,0.05; two asterisks, P,0.01; ANOVA with Dunnett's post-hoc analysis.
Finally, X-34 was tested for its ability to modulate Aβ42 amounts in an APP transgenic mouse (Tg2576).

APP wild-type cells = assay: Aβ modulation in APP wild-type cells; type: cell-based; details: APP wild-type cells; read-out: EC50, lowering of Aβ42
Description: (A) and (B) The sequences of wildtype (WT; A) APP and the mutated substrate (B) containing the homologous region (italic, underlined) of the NOTCH transmembrane domain (TMD) in APP where GSMs are hypothesized to bind. […] Bottom row, FT-1 ([…]) raised Aβ42 200% in APP wild-type cells (A); however, in APP-NOTCH TMD cells (B), FT-1 caused minimal changes in the Aβ42 (95%) or Aβ40 (90%) signal. Data are presented as amyloid-β percentage of control±s.e.m., n=3.
FIG. 19. Substitution of human Notch sequence in the APP transmembrane domain (TMD) changes sensitivity to modulation. (A) Site-directed mutagenesis was used to exchange the analogous region of the human Notch TMD (bold and underlined) for a section (bold and underlined) of wild-type APP (APPwt) we have shown to be labeled by GSMs. The new substrate (APP-Notch TMD) is cleaved by γ-secretase primarily after valine and alanine residues corresponding to 40 and 42 in APPwt (arrows). […] The beginning (1) N-terminal amino acid (AA) to the ending C-terminal AA is shown above each peak, with the molecular weight (m/z) below. 1-40 and 1-42 are detected as the two major species in APP-Notch TMD conditioned media. It should be noted that the mutagenesis strategy to create APPNotch TMD led to a single AA deletion relative to APPwt. […] Both cell lines were treated (6 hours) with L-685,458 (10 μM), which is hypothesized to target the active site aspartate residues, media was collected, and analyzed for changes in Aβ levels. […]
To test the hypothesis that mutation of the GSM binding site in APP should alter sensitivity to GSMs, a portion of the GSM binding site in APP was exchanged with the analogous region of human NOTCH (FIGS. 18A and 18B; FIG. 19). […] Although the molecular weight and abundance of each chimeric peptide differed from amyloid-β peptides from APP, the main species produced from the APP-NOTCH TMD construct had identical C-termini to Ab1-40 and Ab1-42, and could be quantified by enzyme-linked immunosorbent assays (ELISAs; FIG. 19). […]

- pEC50 (APP wild-type cells): 5.23
SMILES: O=C(O)c1cc(C=Cc2ccc(C=Cc3ccc(O)c(C(=O)O)c3)cc2)ccc1O [X-34, 1,4-bis(3-carboxy-4-hydroxyphenylethenyl)-benzene]
- Aβ40 in the brains (Tg2576 mice; 100 mg kg21, Tg2576 mice, 4 h): no effects
- decrease of soluble Aβ42 in the brains (Tg2576 mice; 100 mg kg21, Tg2576 mice, 4 h): 35%
- selectivity of Aβ reduction (Aβ42 vs Aβ40) (Tg2576 mice; Tg2576, oral gavage, 4 hours): selective reductions of Aβ42
